IC50 data for 17 molecules are collected here from patent publication US10428080B2, “TBK/IKK inhibitor compounds and uses thereof” (Merck Patent GmbH, priority 2015, dated 2019).

Each structure is given as a SMILES string. Counter-ions that a name gives are not always drawn.

One assay concerns the target T1, IKKε (Homo sapiens, UniProt Q14164).
T1 sequence (Q14164 1-716): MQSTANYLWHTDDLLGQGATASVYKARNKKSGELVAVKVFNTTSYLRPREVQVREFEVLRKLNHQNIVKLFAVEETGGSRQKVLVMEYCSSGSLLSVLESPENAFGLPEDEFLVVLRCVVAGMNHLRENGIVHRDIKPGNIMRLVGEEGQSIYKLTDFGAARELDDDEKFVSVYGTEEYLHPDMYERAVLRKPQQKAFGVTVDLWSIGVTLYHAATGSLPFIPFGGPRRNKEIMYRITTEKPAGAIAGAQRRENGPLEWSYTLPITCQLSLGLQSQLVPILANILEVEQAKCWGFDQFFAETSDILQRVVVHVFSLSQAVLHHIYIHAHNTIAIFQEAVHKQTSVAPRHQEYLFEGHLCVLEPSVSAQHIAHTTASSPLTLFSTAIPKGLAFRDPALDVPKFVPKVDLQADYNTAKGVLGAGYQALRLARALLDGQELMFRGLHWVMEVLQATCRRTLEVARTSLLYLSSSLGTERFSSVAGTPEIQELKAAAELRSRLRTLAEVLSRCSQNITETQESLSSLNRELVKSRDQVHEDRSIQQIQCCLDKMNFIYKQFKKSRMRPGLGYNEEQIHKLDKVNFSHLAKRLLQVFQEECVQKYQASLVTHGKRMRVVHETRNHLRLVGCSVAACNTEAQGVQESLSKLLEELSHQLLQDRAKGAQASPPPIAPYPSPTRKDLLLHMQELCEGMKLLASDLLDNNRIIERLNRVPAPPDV
The experiment in a line: IKKe Biochemical Assay. The settings on record: read-out: IKKε IC50. The gist of the method: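 Recombinant IKKε and substrate were incubated with compound (10-point 1:4 series, top 30 uM final, 1% DMSO) for 90 min at 25° C, then stopped. Substrate-to-product conversion was read by LabChip microfluidic mobility shift; 10 uM staurosporine served as full-inhibition wells.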

A further assay has as its target T2, TBK1 (Homo sapiens, UniProt Q9UHD2).
T2 sequence (Q9UHD2 1-729): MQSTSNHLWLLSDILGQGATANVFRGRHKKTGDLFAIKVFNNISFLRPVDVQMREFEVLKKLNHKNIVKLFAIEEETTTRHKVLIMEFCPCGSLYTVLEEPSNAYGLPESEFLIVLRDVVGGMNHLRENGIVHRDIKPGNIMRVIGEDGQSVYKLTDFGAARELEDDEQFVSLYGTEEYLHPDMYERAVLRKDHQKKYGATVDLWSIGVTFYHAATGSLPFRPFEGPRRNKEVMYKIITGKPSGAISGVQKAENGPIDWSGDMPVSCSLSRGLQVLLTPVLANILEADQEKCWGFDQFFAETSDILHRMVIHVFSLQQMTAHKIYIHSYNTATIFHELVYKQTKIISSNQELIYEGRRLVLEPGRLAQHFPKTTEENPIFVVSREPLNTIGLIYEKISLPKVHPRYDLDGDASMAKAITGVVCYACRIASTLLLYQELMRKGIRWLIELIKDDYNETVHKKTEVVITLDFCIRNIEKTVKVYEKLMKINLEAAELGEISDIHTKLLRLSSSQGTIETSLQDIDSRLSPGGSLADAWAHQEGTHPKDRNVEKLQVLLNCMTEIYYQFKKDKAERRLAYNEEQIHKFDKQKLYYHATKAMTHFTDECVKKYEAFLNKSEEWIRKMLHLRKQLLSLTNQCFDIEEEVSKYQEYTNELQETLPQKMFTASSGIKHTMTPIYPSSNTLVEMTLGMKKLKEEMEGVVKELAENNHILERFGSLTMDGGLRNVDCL
The experiment in a line: TBK Biochemical Assay. The settings on record: read-out: TBK1 IC50. Summed up: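 TBK1 enzyme and substrate incubated with compounds (10-point 1:4 dilution, top 30 uM final, 1% DMSO) for 90 min at 25° C, then stopped. Substrate/product peaks read by microfluidic mobility-shift (Caliper LabChip); 10 uM staurosporine as full-inhibition control.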

Assay [1] has as its system phosphorylation of the IRF-3 protein in MDA-MB-468 cells. In words: pIRF3 immunocytochemistry cell based assay. The settings on record: Homo sapiens; MDA-MB-468 cells, Poly(I:C) stimulation; read-out: pIRF3 IC50. Summed up: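 MDA-MB-468 cells got compounds (10-point, 3-fold from 10 uM) for 1 h at 37 °C, then 10 ug/ml Poly(I:C) for 2 h. Fixed, permeabilized cells were immunostained for pIRF3 with AlexaFluor488 and counterstained with PI. % phosphorylation was read by laser scanning cytometry, and IC50 curves were fitted.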

By IC50 is commonly meant the midpoint of a concentration-inhibition curve. As for `COc1cc(C(=O)N(C)C)cnc1-c1cc2nccc(-c3ccc(OC4CN(C)C4)c(C#N)c3)c2o1` [Compound 425, 6-(7-[3-cyano-4-[(1-methylazetidin-3-yl)oxy]phenyl]furo[3,2-b]pyridin-2-yl)-5-methoxy-N,N-dimethylpyridine-3-carboxamide], the IC50 (at IKKε; on TBK1; in assay [1]) was 100 to 1000 nM throughout.

For `N#Cc1cc(-c2ccnc3cc(-c4cnn(C5COC5)c4)oc23)ccc1OC1CCOCC1` [Compound 138], the 50% inhibitory concentration (IC50) was less than 100 nM on IKKε, less than 100 nM at TBK1 and 1000 to 5000 nM in assay [1].

Regarding `COc1cc(C(=O)N2CCCCC2)ccc1-c1cc2nccc(-c3ccc(OC4CCOCC4)c(C#N)c3)c2o1` [Compound 27, 5-{2-[2-Methoxy-4-(piperidine-1-carbonyl)-phenyl]-furo[3,2-b]pyridin-7-yl}-2-(tetrahydro-pyran-4-yloxy)-benzonitrile], the IC50 is less than 100 nM on IKKε, less than 100 nM at TBK1 and 100 to 1000 nM in assay [1].

`N#Cc1cc(-c2ccnc3cc(-c4ccc(C(=O)N[C@@H]5CNCC[C@H]5F)cc4)oc23)ccc1OC1CCOCC1` [Compound 141, 4-{7-[3-Cyano-4-(tetrahydro-pyran-4-yloxy)-phenyl]-furo[3,2-b]pyridin-2-yl}-N-((3R,4R)-4-fluoro-piperidin-3-yl)-benzamide]: the IC50 at IKKε was less than 100 nM; at TBK1, less than 100 nM; in assay [1] it was 100 to 1000 nM.

Take `COc1cc(C(=O)N2CC3C2CCN3C)cnc1-c1cc2nccc(-c3ccc(OC4CCOCC4)c(C#N)c3)c2o1` (stereo not drawn) [Compound 405, 5-[2-[3-methoxy-5-([2-methyl-2,6-diazabicyclo[3.2.0]heptan-6-yl]carbonyl)pyridin-2-yl]furo[3,2-b]pyridin-7-yl]-2-(oxan-4-yloxy)benzonitrile hydrochloride]: the IC50 is less than 100 nM on IKKε, less than 100 nM on TBK1 and 100 to 1000 nM in assay [1].

As to `COc1cc(C(=O)NC2CN3CCC2CC3)ccc1-c1cc2nccc(-c3ccc(N4CCC(F)C4)c(C#N)c3)c2o1` (stereo not drawn) [Compound 87, N-(1-Aza-bicyclo[2.2.2]oct-3-yl)-4-{7-[3-cyano-4-(3-fluoro-pyrrolidin-1-yl)-phenyl]-furo[3,2-b]pyridin-2-yl}-3-methoxy-benzamide], the half-inhibitory concentration (IC50) is less than 100 nM on IKKε, less than 100 nM on TBK1 and 100 to 1000 nM in assay [1].

As for `COc1cc(C(=O)NC2C3COCC32)cnc1-c1cc2nccc(-c3ccc(N4CC[C@@H](F)C4)c(C#N)c3)c2o1` (stereo partly drawn) [Compound 466, 6-{7-[3-Cyano-4-((R)-3-fluoro-pyrrolidin-1-yl)-phenyl]-furo[3,2-b]pyridin-2-yl}-5-methoxy-N-(3-oxa-bicyclo[3.1.0]hex-6-yl)-nicotinamide], the 50% inhibitory concentration (IC50) at IKKε was less than 100 nM; on TBK1, less than 100 nM; in assay [1], 100 to 1000 nM.

Consider `COc1cc(C(=O)N(C)C)ccc1-c1cc2nccc(-c3ccc(OC4CCNC4)c(C#N)c3)c2o1` (stereo not drawn) [Compound 108, 4-{7-[3-Cyano-4-(pyrrolidin-3-yloxy)-phenyl]-furo[3,2-b]pyridin-2-yl}-3-methoxy-N,N-dimethyl-benzamide], for which the concentration for half-maximal inhibition (IC50) (on IKKε; at TBK1; in assay [1]) was less than 100 nM throughout.

Turning to `COc1cc(C(=O)N(C)C)ncc1-c1cc2nccc(-c3ccc(OC4CCOCC4)c(C#N)n3)c2o1` [Compound 387, 5-[7-[6-cyano-5-(oxan-4-yloxy)pyridin-2-yl]furo[3,2-b]pyridin-2-yl]-4-methoxy-N,N-dimethylpyridine-2-carboxamide hydrochloride], the values for the IC50 (at IKKε; on TBK1; in assay [1]) were less than 100 nM, less than 100 nM and 100 to 1000 nM, respectively.

Take `COc1cc(C(=O)N2CC3CCC2CN3C)ccc1-c1cc2nccc(-c3ccc(NC4CCOCC4)c(C#N)c3)c2o1` (stereo not drawn) [Compound 510]: the IC50 (at IKKε; at TBK1; in assay [1]) was less than 100 nM each time.

With `CN(C)C(=O)c1ccc(-c2cc3nccc(-c4ccc(N5CCC(N(C)C6CC6)C5)c(C#N)c4)c3o2)cc1` (stereo not drawn) [Compound 179, 4-(7-{3-Cyano-4-[3-(cyclopropyl-methyl-amino)-pyrrolidin-1-yl]-phenyl}-furo[3,2-b]pyridin-2-yl)-N,N-dimethyl-benzamide], the values for the IC50 (on IKKε; on TBK1; in assay [1]) were 100 to 1000 nM, 100 to 1000 nM and 1000 to 5000 nM, respectively.

With `COc1cc(C(=O)NC2CCNC2)ccc1-c1cc2nccc(-c3ccc(NC4CCOCC4)c(C#N)c3)c2o1` (stereo not drawn) [Compound 130, 4-{7-[3-Cyano-4-(tetrahydro-pyran-4-ylamino)-phenyl]-furo[3,2-b]pyridin-2-yl}-3-methoxy-N-pyrrolidin-3-yl-benzamide], the concentration for half-maximal inhibition (IC50) on IKKε is less than 100 nM; on TBK1, less than 100 nM; in assay [1], 100 to 1000 nM.

With `COc1cc(C(=O)N2C3COCC2CC(O)C3)cnc1-c1cc2nccc(-c3ccc(OC4CCOCC4)c(C#N)c3)c2o1` (stereo not drawn) [Compound 412, 5-[2-[5-([7-hydroxy-3-oxa-9-azabicyclo[3.3.1]nonan-9-yl]carbonyl)-3-methoxypyridin-2-yl]furo[3,2-b]pyridin-7-yl]-2-(oxan-4-yloxy)benzonitrile], the IC50 (at IKKε; at TBK1; in assay [1]) was less than 100 nM throughout.

Consider `COc1cc(C(=O)N(C)C)cnc1-c1cc2ncc(F)c(-c3ccc(NC4CCOCC4)c(C#N)c3)c2o1` [Compound 329, 6-(7-[3-cyano-4-[(oxan-4-yl)amino]phenyl]-6-fluorofuro[3,2-b]pyridin-2-yl)-5-methoxy-N,N-dimethylpyridine-3-carboxamide], for which the 50% inhibitory concentration (IC50) is 100 to 1000 nM at IKKε, less than 100 nM on TBK1 and 100 to 1000 nM in assay [1].

On to `COc1cc(C(=O)N(C)C)ccc1-c1cc2nccc(-c3ccc(OC4CCOC5(CC5)C4)c(C#N)c3)c2o1` (stereo not drawn) [Compound 290, 4-[7-(3-cyano-4-[4-oxaspiro[2.5]octan-7-yloxy]phenyl)furo[3,2-b]pyridin-2-yl]-3-methoxy-N,N-dimethylbenzamide], for which the figures for the concentration for half-maximal inhibition (IC50) (at IKKε; on TBK1; in assay [1]) were less than 100 nM, less than 100 nM and 100 to 1000 nM, respectively.

`COc1cc(C(=O)N[C@@H]2CN3CCC2CC3)ncc1-c1cc2nccc(-c3ccc(N4CC[C@@H](F)C4)c(C#N)c3)c2o1` [Compound 445, 5-{7-[3-Cyano-4-((R)-3-fluoro-pyrrolidin-1-yl)-phenyl]-furo[3,2-b]pyridin-2-yl}-4-methoxy-pyridine-2-carboxylic acid (1-aza-bicyclo[2.20.2]oct-3-yl)-amide]: the IC50 (on IKKε; at TBK1; in assay [1]) was less than 100 nM in each case.

As to `COc1cc(C(=O)N(C)C)ccc1-c1cc2ncc(F)c(-c3ccc(OC4CCOCC4)c(C#N)c3)c2o1` [Compound 298, 4-[7-[3-cyano-4-(oxan-4-yloxy)phenyl]-6-fluorofuro[3,2-b]pyridin-2-yl]-3-methoxy-N,N-dimethylbenzamide], the IC50 on IKKε was less than 100 nM; at TBK1 it was less than 100 nM; in assay [1], 100 to 1000 nM.
